Experimental data reported in patent US10363305B2, “Anti-ganglioside compound for targeting cancer and generating antibodies” (REALIST PHARMA, INC., priority 2013, dated 2019).

Key:
[1] = Water solubility; format: physicochemical
Experimental: The carbohydrates were synthesized as described (Gilbert et al., 2002, J Biol Chem, 277: 327), by modification of the process for phenylthio-GD2 (Tong et al., 2010, Cehm Biol, 17: 183) in which the thio-phenyl analog originally reported was substituted with an p-aminophenyl-(β-D-lactopyranoside (AP-Lac), from Toronto Research Chemicals), for subsequent conjugation to the dendrimer (see below). AP-GD2 was water soluble (>20 mg/ml), and was purified to >99% purity by size-exclusion (Superdex 30 16 mm×85 cm column, GE Health Care). The measured molecular weight of AP-GD2 was 1218 g/mol and corresponded to expected values. Structures were verified by 1D and 2D NMR spectroscopy and mass spectrometry (EI-MS) (see FIGS. 2A and B).

[2] = system: EL4-GD2+ cells; experiment: Mixed lymphocyte reaction, 3H-thymidine incorporation, EL4-GD2+ stimulators; format: cell-based, mouse; conditions: EL4-GD2+ cells alone
Experimental: (§1) EL4-GD2^+ cells and control Jurkat cells were treated with 25 μg/ml Mitomycin (Sigma) for 1 hr to arrest their proliferation. After the cells were washed three times with media to remove Mitomycin, they were plated in 96-well plates at 2×10^5 cells/well. Single cell suspensions of splenocytes were obtained from twice immunized (as above) and from vehicle injected control mice. Cells were separated following the protocol of the EASYSEP™ magnet (Stem Cell Tech). […] The T cells were plated at a ratio of 10:1 with Mitomycin-treated EL4 or Jurkat cells. As controls, cultures of T cells alone (no stimulating tumor cells) or T cells treated with ConcanavilinA were used. After 5 days of culture, 0.1μCi/well ^3H-thymidine (Sigma-Aldrich) was added. DNA-incorporated ^3H-thymidine was counted by liquid scintillation, and data are reported as average cpm±sd.

[3] = system: Jurkat cells; experiment: Mixed lymphocyte reaction, 3H-thymidine incorporation, Jurkat stimulators; format: cell-based; conditions: Jurkat cells alone
Experimental: as §1

solubility [1] [mg/mL] | SMILES | 3H-thymidine incorporation of treated stimulator cells [2] [cpm] | 3H-thymidine incorporation of treated stimulator cells [3] [cpm]
> 20 | CC(=O)NC1C(OC2C(CO)OC(OC3C(CO)OC(Oc4ccc(N)cc4)C(O)C3O)C(O)C2OC2(C(=O)O)CC(O)C(NC(C)=O)C([C@H](O)C(CO)OC3(C(=O)O)CC(O)C(NC(C)=O)C([C@H](O)[C@H](O)CO)O3)O2)OC(CO)C(O)C1O (stereo partly drawn) [AP-GD2] |  | 
 | CO[C@@]12[C@H](COC(N)=O)C3=C(C(=O)C(C)=C(N)C3=O)N1C[C@@H]1N[C@@H]12 [Mitomycin] | 188±4 | 107±5
